The values that follow come from ChEMBL document CHEMBL5143595, “Expanding the structure-activity relationship of cytotoxic diphenyl macrocycles” (Bioorg Med Chem Lett, 2022).

The structures appear in SMILES notation.

Data set [1] can be described thus: Antiproliferative activity against African green monkey COS-7 cells assessed as inhibition of cell growth at 10 uM incubated for 48 hrs by SRB assay relative to control. The class given is toxicity, cell-based. As to conditions: chlorocebus aethiops, read-out: Activity. On the technique in general: In SRB staining, fixed cells bind dye roughly in proportion to their protein.

A further data set concerns PC-3. As to the kind of experiment: Antiproliferative activity against human PC-3 cells assessed as inhibition of cell growth at 10 uM incubated for 48 hrs by SRB assay relative to control. Format: functional. The arrangement: scale not given: the % may be the effect or the level left.
Data set [2] has as its system K562. As to the kind of experiment: Antiproliferative activity against human K562 cells assessed as inhibition of cell growth at 10 uM incubated for 48 hrs by SRB assay relative to control. The arrangement: scale not given: the % may be the effect or the level left. The class given is functional.
In data set [3] the test system is SK-LU-1. Put plainly: Antiproliferative activity against human SK-LU-1 cells assessed as inhibition of cell growth at 10 uM incubated for 48 hrs by SRB assay relative to control. Format: functional. The arrangement: scale not given: the % may be the effect or the level left.
The subject of data set [4] is U-251. Put plainly: Antiproliferative activity against human U-251 cells assessed as inhibition of cell growth at 10 uM incubated for 48 hrs by SRB assay relative to control. The arrangement: scale not given: the % may be the effect or the level left. Format: functional.
Data set [5] has as its system K562. Put plainly: Antiproliferative activity against human K562 cells assessed as inhibition of cell growth incubated for 48 hrs by SRB assay. As to conditions: K562, 48 h. The class given is functional, cell-based.
In a further data set the test system is MCF7. As to the kind of experiment: Antiproliferative activity against human MCF7 cells assessed as inhibition of cell growth at 10 uM incubated for 48 hrs by SRB assay relative to control. The class given is functional. The arrangement: scale not given: the % may be the effect or the level left.
Another data set concerns HCT-15. As to the kind of experiment: Antiproliferative activity against human HCT-15 cells assessed as inhibition of cell growth at 10 uM incubated for 48 hrs by SRB assay relative to control. Format: functional. The arrangement: scale not given: the % may be the effect or the level left.
The test system of data set [6] is SK-LU-1. Put plainly: Antiproliferative activity against human SK-LU-1 cells assessed as inhibition of cell growth incubated for 48 hrs by SRB assay. Format: functional, cell-based. The conditions noted are these: SK-LU-1, 48 h.
In data set [7] the test system is U-251. Put plainly: Antiproliferative activity against human U-251 cells assessed as inhibition of cell growth incubated for 48 hrs by SRB assay. The class given is functional, cell-based. As to conditions: U-251, 48 h.

Usually IC50 stands for the concentration that inhibits the measured activity by half. For `CCCCCCCNC(=O)CN1CCCCN(CC(=O)NC(C)(C)C)C(=O)c2cccc(c2)-c2cccc(c2)C1=O`, the inhibition at 48 h, 10 µM in data set [1] stood at 7.6%. In addition, the Activity with PC-3 is given as 97.2%; in the data set on K562 [2], 79.3%; in the data set on SK-LU-1 [3] it was 88.6%; in the data set with U-251 [4], 99.2%; in the data set with MCF7, 70.9%; in the data set on HCT-15, 77.9%. Moreover, the IC50 is 8.2 µM in the data set with K562 [5] and 4.7 µM in the data set with SK-LU-1 [6].
With `COc1cc([C@@H]2c3cc4c(cc3[C@@H](O[C@@H]3O[C@@H]5CO[C@@H](C)O[C@H]5[C@H](O)[C@H]3O)[C@H]3COC(=O)[C@H]23)OCO4)cc(OC)c1O` [ETOPOSIDE], the IC50 in the data set with K562 [5] came out at 11.3 µM.
As for `CCCCCCCCCCCCNC(=O)CN1CCCCN(CC(=O)NC(C)(C)C)C(=O)c2cccc(c2)-c2cccc(c2)C1=O`, the IC50 in the data set on K562 [5] was 4 µM; with U-251 [7], 5.9 µM; in the data set on SK-LU-1 [6], 7.6 µM.
For the molecule `CCCCCCCCCNC(=O)CN1CCCCN(CC(=O)NC(C)(C)C)C(=O)c2cccc(c2)-c2cccc(c2)C1=O`, in data set [1], the inhibition at 48 h, 10 µM turned out to be 52.4%. Also, the Activity was found to be 66.9% with PC-3; 44% with K562 [2]; 45.3% in the data set with SK-LU-1 [3]; 16% in the data set on U-251 [4]; 45.6% in the data set on MCF7; 55.1% in the data set with HCT-15.
